Active and inactive are the calls of the source. The rule behind the calls is not given here.

The subject of assay [1] is A549. Kind of assay: Cytotoxicity against human A549 cells assessed as inhibition of cell growth incubated for 72 hrs by CCK-8 assay. The format is functional, cell-based. The conditions noted are these: A549, 72 h.
Assay [2] concerns Caco-2. Kind of assay: Cytotoxicity against human Caco-2 cells assessed as inhibition of cell growth incubated for 72 hrs by CCK-8 assay. The note with it: Caco-2, 72 h. The format is functional, cell-based. Background: Tetrazolium assays rely on reduction of a dye to a coloured formazan, in cell work by metabolically active cells.
Assay [3] relates to Saccharomyces cerevisiae. Kind of assay: Antimicrobial activity against Saccharomyces cerevisiae AS2.399 incubated for 24 hrs by absorbance based analysis. The format is functional, organism-based.
Assay [4] relates to MDA-MB-231. Kind of assay: Cytotoxicity against human MDA-MB-231 cells assessed as inhibition of cell growth incubated for 72 hrs by CCK-8 assay. The format is functional, cell-based. The note with it: MDA-MB-231, 72 h.
The subject of assay [5] is Aspergillus cristatus. Kind of assay: Antimicrobial activity against Aspergillus cristatus CB10002 incubated for 24 hrs by absorbance based analysis. The format is functional, organism-based.
The test system of assay [6] is HepG2. Kind of assay: Cytotoxicity against human HepG2 cells assessed as inhibition of cell growth incubated for 72 hrs by CCK-8 assay. The conditions noted are these: HepG2, 72 h. It counts as functional, cell-based.
Assay [7] has as its system Aspergillus flavus. The assay can be described thus: Antimicrobial activity against Aspergillus flavus AS3.3950 incubated for 24 hrs by absorbance based analysis. The format is functional, organism-based.
Assay [8] relates to Staphylococcus aureus. The assay can be described thus: Antimicrobial activity against Staphylococcus aureus ATCC 29213 incubated for 24 hrs by absorbance based analysis. It counts as functional, organism-based.
In assay [9] the test system is Aspergillus ochraceus. Kind of assay: Antimicrobial activity against Aspergillus ochraceus AS3.3876 incubated for 24 hrs by absorbance based analysis. It counts as functional, organism-based.
The test system of assay [10] is Escherichia coli. The assay can be described thus: Antimicrobial activity against Escherichia coli DH5alpha incubated for 24 hrs by absorbance based analysis. The format is functional, organism-based.

By IC50 is commonly meant the concentration needed to halve the response being measured. For the molecule `CCCCCCCCCCCCCC(=O)O` [MYRISTIC ACID], the figures for the IC50 in assay [1] and in assay [2] were 200 µM and above 1000 µM, respectively.
Taken in the same sequence, the figures for `CCCC/C=C\CCCCCCCC(=O)O` [MYRISTOLEIC ACID] were 270 µM and 270 µM.
Taken in the same sequence, the figures for `C=CCCCCCCCCCCC(=O)O` were 120 µM and 140 µM.
In the case of `Cc1ccccc1/C=C/CCCCCCCCCCC(=O)O`, the outcome in [3], in [5], in [7], in assay [8], in [9] and in [10] was inactive. Also, the concentration for half-maximal inhibition (IC50) in assay [4] came out at 0.45 µM; in [6] it was 2.2 µM; in assay [1] it was 0.35 µM; in assay [2], 4.6 µM.
As for `Cc1ccccc1/C=C/CCC(=O)O`, the outcome in [3], in [5], in assay [7], in [8], in assay [9] and in assay [10] was inactive. Besides, the IC50 in [4] was 190 µM; in assay [6], 740 µM; in [1], 64 µM; in assay [2], above 1000 µM.
Turning to `CCCCCCCCCCCCC(=O)O` [TRIDECANOATE], the half-maximal inhibitory concentration (IC50) in assay [1] came to 250 µM; in assay [2], 280 µM.
